# pIC50: −log10 of the molar value.
# What was measured:
# MAGL = tested on: MAGL; parameters: method as in PMID 35089028, PMID 34764251, PMID 34328319, PMID 29498843; settings: known MAGL ligands of Figure 1; cited from earlier work
# HT-29 cells = assay: Confocal live cell imaging of HT-29 cells; format: cell-based; settings: inhibitor 10 μM; probe 9 0.15 μM
# Description: The enzymatic activity of MAGL plays a critical role in cancer lipid metabolism and is overexpressed in several particularly aggressive cancer cell lines.[56] Therefore, the expression levels of MAGL are considered a prognostic biomarker for the degree of cancer tumor differentiation and progression.[57] Here the colon cancer HT‐29 cell line is one of the prototypical systems regarding the impact of MAGL in proliferating and invasive cancer.[45, 58, 59] We studied the ability of probes 8–12 to detect MAGL by confocal imaging microscopy (Figure 6 A). Consistent staining of MAGL could be achieved with all optimized probes 8–12 carrying NBD, BODIPY, and SiR, respectively, providing a bright and stable fluorescent signal in live cancer cells. […]
# For ABPP experiments, cell lysates containing equal amounts of protein were incubated with the appropriate concentration of activity-based probe for 30 min at room temperature. […] Samples were then separated by SDS-PAGE and bands were detected ChemiDoc Imager (Bio-Rad Laboratories). […] Gels were imaged and protein bands were quantified using Image Lab software (Bio-Rad Laboratories).
# Fluorescence confocal microscopy. […]
# Confocal live cell image acquisition. […] The probe fluorescence was monitored by kinetic measurements of 10 min with a break for probe administration. The fluorescence of one image per sample was captured at each time point. […]
# [1] = tested on: primary hippocampal neurons; assay: Confocal imaging of live primary hippocampal neuron cultures; format: cell-based, mouse; settings: inhibitor 10 μM, 2 h before labeling; p <0.01
# Description: MAGL plays a vital role in neuronal inflammation[24, 66, 67] and the integrity of the blood–brain barrier.[68, 69] Therefore, we investigated the imaging capability of the probes in live dissociated primary hippocampal neuron cultures (Figure 6 C) as a prime model system in CNS research, particularly in the context of its role in shaping neurotransmitter release and synaptic plasticity properties.[70] Confocal microscopic imaging of the live cultures, at day 14–21 in vitro, was performed on cells treated with probe 9 (1 μM) and the particularly bright silicon‐rhodamine (SiR) probes 10 and 12 (0.5 μM) at 37 °C for 15 min, all of them producing a strong fluorescent signal. […] We observed an accumulation of the fluorescent signal in neuronal varicosities with a distribution that is reminiscent of that of synapses, indicating the localization of MAGL.
# Hippocampal Neurons Staining
# Preparation of primary neuron cultures. For neuron culture, glass coverslips (19 mm, #1.5
# Epredia Deckgläser, CB00190RAC20MNZ0) were coated with PLL (Sigma-Aldrich, P4707; 1:12
# dilution) in phosphate-buffered saline (PBS) for 2h at 37 °C. Hippocampal neurons were then […]
# microscope for a maximum of 30 min. Images were then analyzed using FIJI. […]
# analysis. The protein was analyzed using a Waters H-class instrument equipped with a quaternary […]
structure (smiles),measurement,setting,value
O=C(OC(CO)C(F)(F)F)N1CC2C(C1)C2c1ccn(-c2ccc(F)cc2)n1 (stereo not drawn) [PF-06795071],pIC50,MAGL,8.52
same,Effect of pre-incubation on probe 9 fluorescent signal,HT-29 cells,completely suppressed the fluorescent signal
same,Effect of pre-incubation on MAGL probe labeling,[1],strong decrease in mean fluorescent intensity

# — publication PMC11878344 (Angewandte Chemie (International Ed. in English), 2025)
